Test results published in patent US20100305161A1, “COMBINATIONS OF FUNGICIDAL AZOLES AND PYRION COMPOUNDS” (priority 2007, published 2010).

What was measured:
Assay in all cases: Poison Plate Assay, MIC and synergy of combinations
Assay type in all cases: cell-based
[1] = tested on: Ulocladium atrum IMI214699a; conditions: Alternaria atra, 336 h, ppm total active ingredient, growth evaluated after two weeks, 27° C., 70% relative humidity, read-out: MIC-values (minimum inhibitory concentration)
Procedure: (§1) • Test models: Fungi: to each well of a 24-well microtiter plate, 1000 μl of a rich (Potato Dextrose Agar, PDA: 4 g potato infusion, 20 g bacto dextrose and 15 g bacto agar in 1 liter deionised water) or poor (Glucose Agar, GA: 10 g glucose, 1.5 g K2HPO4, 2 g KH2PO4, 1 g (NH4)2SO4, 0.5 g MgSO4 and 12.5 g agar in 1 liter deionised water) medium containing the appropriate combination of the test compounds in one of the concentrations of a dose series is added. The nutrient medium is inoculated with the test fungi by adding a spore/mycelium suspension (10 μl) or a small piece of agar from the margin of an actively growing colony and incubated under dark at 27° C. with 70% relative humidity. The growth of the fungi is evaluated after two weeks. • Bacteria: to each well of a 24-well microtiter plate, 1000 μL Tryptose Agar (TA, 20 g bacto tryptose agar, 5 g sodium chloride, 1 g bacto dextrose and 15 g agar in 1 liter deionised water), containing the test compounds in one of the concentrations of a dose series is added. The nutrient medium is inoculated by adding 10 μl of an actively growing liquid culture of the test bacteria in tryptose broth (without agar), and incubated under dark at 27° C. with 70% relative humidity.
A. G. Nass (1957) “Some aspects of the notions additivity, synergism and antagonism in the simultaneous activity of two antibacterial agents in vitro” Arch. intern. […]

[2] = tested on: Coriolus versicolor CTB863A; conditions: Trametes versicolor, 336 h, ppm total active ingredient, growth evaluated after two weeks, 27° C., 70% relative humidity, read-out: MIC-values (minimum inhibitory concentration)
Procedure: as §1
(§2) When the Synergy Index is greater than 1.0, antagonism is indicated. When the SI is equal to 1.0, additivity is indicated.

[3] = tested on: Chaetomium globosum ATCC6205; conditions: ATCC6205, 336 h, ppm total active ingredient, growth evaluated after two weeks, 27° C., 70% relative humidity, read-out: MIC-values (minimum inhibitory concentration)
Procedure: as §1, §2

## CCCC1COC(Cn2cncn2)(c2ccc(Cl)cc2Cl)O1 (stereo not shown) [(I-m) + (II-a) 100 + 0, 1-[[2-(2,4-dichlorophenyl)-4-propyl-1,3-dioxolan-2-yl]methyl]-1H-1,2,4-triazole]
[1]
  MIC: 33.3 µg/mL
[2]
  MIC: 1.88 µg/mL
[3]
  MIC: 5.01 µg/mL

## [O-][n+]1ccccc1SSc1cccc[n+]1[O-] [(I-n) + (II-g) 0 + 100, pyrion disulfide]
[1]
  MIC: 1.88 µg/mL
